Assays:
[1] = tested on: corn; test: Test B pre/postemergence corn; type: in vivo, Zea mays
Procedure, shortened: (§1)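 Test chemicals in a non-phytotoxic solvent mixture with surfactant were sprayed preemergence onto planted seeds and postemergence onto plants 2 to 18 cm tall (1- to 4-leaf stage). After twelve to sixteen days in a greenhouse, injury was visually rated against untreated controls from 0 (no effect) to 10 (complete control).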

[2] = tested on: cocklebur; test: Test B pre/postemergence cocklebur; type: in vivo, Xanthium strumarium
Procedure, shortened: as §1

[3] = tested on: bamyardgrass; test: Test B flood test barnyardgrass; type: in vivo, Echinochloa crus-galli; details: for Plant response rating, Barnyardgrass: scale 0 to 10, 0 is no effect, 10 is complete control; for Barnyardgrass plant response rating: scale of 0 to 10 where 0 is no effect and 10 is complete control
Procedure, shortened: (§2)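 Read-out is a visual response score from 0 (no effect) to 10 (complete control), assigned by comparison with untreated controls. Treatment was applied at the 2-leaf stage, and plants stayed in the greenhouse for twelve to sixteen days before scoring.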

[4] = tested on: crabgrass; test: Test B pre/postemergence crabgrass; type: in vivo, Digitaria sanguinalis
Procedure, shortened: as §1

[5] = tested on: bedstraw; test: Test B pre/postemergence bedstraw; type: in vivo, Galium aparine; details: Postemergence
Procedure, shortened: as §1

[6] = tested on: pigweed; test: Test B pre/postemergence pigweed; type: in vivo, Amaranthus retroflexus
Procedure, shortened: as §1

[7] = tested on: blackgrass; test: Test B pre/postemergence blackgrass; type: in vivo, Alopecurus myosuroides
Procedure, shortened: as §1

[8] = tested on: smallflower flatsedge; test: Test B flood test smallflower flatsedge; type: in vivo, Cyperus difformis
Procedure, shortened: as §2

[9] = tested on: surinam grass; test: Test B pre/postemergence surinam grass; type: in vivo, Brachiaria decumbens
Procedure, shortened: as §1

[10] = tested on: morningglory; test: Test B pre/postemergence morningglory; type: in vivo, Ipomoea hederacea
Procedure, shortened: as §1

[11] = tested on: wild oat; test: Test B pre/postemergence wild oat; type: in vivo, Avena fatua
Procedure, shortened: as §1

[12] = tested on: duck salad; test: Test B flood test duck salad; type: in vivo, Heteranthera limosa; details: for Plant response rating, Ducksalad: scale 0 to 10, 0 is no effect, 10 is complete control; for Ducksalad plant response rating: scale of 0 to 10 where 0 is no effect and 10 is complete control
Procedure, shortened: as §2

[13] = tested on: wheat; test: Test B pre/postemergence wheat; type: in vivo, Triticum aestivum
Procedure, shortened: as §1

[14] = tested on: sugar beet; test: Test B pre/postemergence sugar beet; type: in vivo, Beta vulgaris
Procedure, shortened: as §1

[15] = tested on: rice; test: Test B flood test rice; type: in vivo, Oryza sativa
Procedure, shortened: as §2

[16] = tested on: velvetleaf; test: Test B pre/postemergence velvetleaf; type: in vivo, Abutilon theophrasti
Procedure, shortened: as §1

[17] = tested on: soybean; test: Test B pre/postemergence soybean; type: in vivo, Glycine max
Procedure, shortened: as §1

[18] = tested on: purple nutsedge; test: Test B pre/postemergence purple nutsedge; type: in vivo, Cyperus rotundus
Procedure, shortened: as §1

[19] = tested on: rape; test: Test B pre/postemergence rape; type: in vivo, Brassica napus
Procedure, shortened: as §1

[20] = tested on: giant foxtail; test: Test B pre/postemergence giant foxtail; type: in vivo, Setaria faberii
Procedure, shortened: as §1

[21] = Postemergence, Rate 125 g/ha, scale 0 to 10, 0 is no effect, 10 is complete control
[22] = Postemergence, Rate 250 g/ha, scale 0 to 10, 0 is no effect, 10 is complete control
[23] = Postemergence, Rate 500 g/ha, scale of 0 to 10 where 0 is no effect and 10 is complete control
[24] = Preemergence, Rate 62 g/ha, scale 0 to 10 (0 no effect, 10 complete control)
[25] = Preemergence, Rate 125 g/ha, scale of 0 to 10 where 0 is no effect and 10 is complete control
[26] = Preemergence, Rate 250 g/ha, scale 0 to 10, 0 is no effect, 10 is complete control
[27] = Preemergence, Rate 500 g/ha, scale 0 to 10, 0 is no effect, 10 is complete control
[28] = Rate 62 g/ha, Postemergence, scale of 0 to 10 where 0 is no effect and 10 is complete control
[29] = Postemergence (flood test), Rate 125 g/ha
[30] = Postemergence section (flood test species), Rate 500 g/ha
[31] = Rate 62 g/ha, Postemergence (flood test species)
[32] = flood test species, listed under Postemergence, Rate 250 g/ha
[33] = Preemergence, Rate 250 g/ha, scale of 0 to 10 where 0 is no effect and 10 is complete control
[34] = Postemergence section (flood test species), Rate 500 g/ha, scale of 0 to 10 where 0 is no effect and 10 is complete control
[35] = flood test species, listed under Postemergence, Rate 250 g/ha, scale 0 to 10, 0 is no effect, 10 is complete control

SMILES: CC(C)N(C(=O)n1oc(=O)n(C2CCOCC2)c1=O)c1ccccc1 [Compound 416]
- Plant response rating, Corn [1, 21]: 0
- Plant response rating, Corn [1, 22]: 5
- Corn plant response rating [1, 23]: 7
- Plant response rating, Corn [1, 24]: 0
- Plant response rating, Corn [1, 25]: 0
- Corn plant response rating [1, 26]: 3
- Corn plant response rating [1, 27]: 6
- Corn plant response rating [1, 28]: 0
- Plant response rating, Cocklebur [2, 21]: 0
- Plant response rating, Cocklebur [2, 22]: 0
- Cocklebur plant response rating [2, 23]: 5
- Plant response rating, Cocklebur [2, 24]: 0
- Plant response rating, Cocklebur [2, 25]: 0
- Cocklebur plant response rating [2, 26]: 0
- Cocklebur plant response rating [2, 27]: 4
- Cocklebur plant response rating [2, 28]: 0
- Plant response rating, Barnyardgrass [3, 29]: 0
- Barnyardgrass plant response rating [3, 30]: 0
- Barnyardgrass plant response rating [3, 31]: 0
- Plant response rating, Barnyardgrass [3, 32]: 0
- Plant response rating, Crabgrass [4, 21]: 6
- Plant response rating, Crabgrass [4, 22]: 9
- Crabgrass plant response rating [4, 23]: 9
- Plant response rating, Crabgrass [4, 24]: 7
- Plant response rating, Crabgrass [4, 25]: 10
- Crabgrass plant response rating [4, 26]: 10
- Crabgrass plant response rating [4, 27]: 10
- Crabgrass plant response rating [4, 28]: 2
- Plant response rating, Bedstraw ([5]; Rate 125 g/ha, scale 0 to 10, 0 is no effect, 10 is complete control): 3
- Bedstraw plant response rating ([5]; Rate 500 g/ha, scale of 0 to 10 where 0 is no effect and 10 is complete control): 7
- Plant response rating, Redroot pigweed [6, 22]: 2
- Redroot pigweed plant response rating [6, 23]: 7
- Plant response rating, Redroot pigweed [6, 24]: 7
- Plant response rating, Redroot pigweed [6, 25]: 9
- Redroot pigweed plant response rating [6, 26]: 10
- Redroot pigweed plant response rating [6, 27]: 10
- Plant response rating, Blackgrass [7, 21]: 9
- Plant response rating, Blackgrass [7, 22]: 9
- Blackgrass plant response rating [7, 23]: 9
- Plant response rating, Blackgrass [7, 24]: 8
- Plant response rating, Blackgrass [7, 25]: 9
- Blackgrass plant response rating [7, 33]: 10
- Blackgrass plant response rating [7, 27]: 10
- Blackgrass plant response rating [7, 28]: 6
- S. Flatsedge plant response rating [8, 34]: 0
- Plant response rating, S. Flatsedge [8, 35]: 0
- Plant response rating, B. signalgrass [9, 21]: 6
- Plant response rating, B. signalgrass [9, 22]: 8
- B. signalgrass plant response rating [9, 23]: 9
- Plant response rating, B. signalgrass [9, 24]: 7
- Plant response rating, B. signalgrass [9, 25]: 7
- B. signalgrass plant response rating [9, 33]: 7
- B. signalgrass plant response rating ([9]; Preemergence, Rate 500 g/ha, scale of 0 to 10 where 0 is no effect and 10 is complete control): 9
- B. signalgrass plant response rating [9, 28]: 2
- Plant response rating, Morningglory [10, 22]: 9
- Morningglory plant response rating [10, 23]: 9
- Plant response rating, Morningglory [10, 24]: 0
- Plant response rating, Morningglory [10, 25]: 4
- Morningglory plant response rating [10, 26]: 6
- Morningglory plant response rating [10, 27]: 8
- Wild oats plant response rating [11, 23]: 7
- Plant response rating, Wild oats [11, 24]: 6
- Plant response rating, Wild oats [11, 25]: 7
- Wild oats plant response rating [11, 26]: 8
- Wild oats plant response rating [11, 27]: 10
- Plant response rating, Ducksalad [12, 29]: 0
- Ducksalad plant response rating [12, 30]: 0
- Ducksalad plant response rating [12, 31]: 0
- Plant response rating, Ducksalad [12, 32]: 0
- Wheat plant response rating [13, 23]: 7
- Plant response rating, Wheat [13, 24]: 2
- Plant response rating, Wheat [13, 25]: 4
- Wheat plant response rating [13, 26]: 7
- Wheat plant response rating [13, 27]: 10
- Plant response rating, Sugarbeets [14, 22]: 0
- Sugarbeets plant response rating [14, 23]: 2
- Plant response rating, Sugarbeets [14, 24]: 3
- Plant response rating, Sugarbeets [14, 25]: 4
- Sugarbeets plant response rating [14, 26]: 7
- Sugarbeets plant response rating [14, 27]: 9
- Rice plant response rating [15, 34]: 0
- Plant response rating, Rice [15, 35]: 0
- Plant response rating, Velvetleaf [16, 22]: 0
- Velvetleaf plant response rating [16, 23]: 6
- Plant response rating, Velvetleaf [16, 24]: 0
- Plant response rating, Velvetleaf [16, 25]: 3
- Velvetleaf plant response rating [16, 26]: 6
- Velvetleaf plant response rating [16, 27]: 8
- Plant response rating, Soybean [17, 22]: 6
- Soybean plant response rating [17, 23]: 7
- Plant response rating, Soybean [17, 24]: 0
- Plant response rating, Soybean [17, 25]: 4
- Soybean plant response rating [17, 26]: 7
- Soybean plant response rating [17, 27]: 9
- Plant response rating, Nutsedge [18, 22]: 0
- Nutsedge plant response rating [18, 23]: 0
- Plant response rating, Nutsedge [18, 24]: 0
- Plant response rating, Nutsedge [18, 25]: 0
- Nutsedge plant response rating [18, 26]: 3
- Nutsedge plant response rating [18, 27]: 4
- Plant response rating, Rape [19, 22]: 3
- Rape plant response rating [19, 23]: 3
- Plant response rating, Rape [19, 24]: 7
- Plant response rating, Rape [19, 25]: 9
- Rape plant response rating [19, 26]: 9
- Rape plant response rating [19, 27]: 10
- Plant response rating, Giant foxtail [20, 21]: 8
- Plant response rating, Giant foxtail [20, 22]: 9
- Giant foxtail plant response rating [20, 23]: 9
- Plant response rating, Giant foxtail [20, 24]: 8
- Plant response rating, Giant foxtail [20, 25]: 10
- Giant foxtail plant response rating [20, 26]: 10
- Giant foxtail plant response rating [20, 27]: 10
- Giant foxtail plant response rating [20, 28]: 7
